Data on ten compounds can be found in ChEMBL document CHEMBL4043185, “Discovery of non-zwitterionic aryl sulfonamides as Nav1.7 inhibitors with efficacy in preclinical behavioral models and translational measures of nociceptive neuron activation” (Bioorg Med Chem, 2017).

A word on the Papp: it is the rate of passage across a membrane or cell layer, normalised by area and donor concentration. The half-life is how long it takes for the measured level to halve. A low value points to fast loss. As usually defined, the bioavailability is the share of a dose that reaches the circulation, judged against a reference dose that is usually intravenous. The low end stands for little systemic uptake, the high end for much systemic uptake. For orientation: Cmax means the highest concentration seen after dosing. In general, clearance refers to the volume of plasma or blood freed of the substance per unit of time. Lower therefore signals inefficient removal.

Data set [1] is described as follows: physchem. The following applies: PAMPA, pH 7.4. In general terms: PAMPA measures passive passage across an artificial lipid membrane.
Data set [2] is described as follows: physchem. The following applies: PAMPA, pH 5.5.
For data set [3] the following is noted: PAMPA, pH 5.5.
Data set [4] in a line: Plasma concentration in mouse model of complete Freund's adjuvant-induced inflammatory pain at 10 mg/kg, po measured after 90 mins post dose. Format: ADME, organism-based.
Data set [5] has as its system Plasma. Nature of the data set: Unbound plasma concentration in mouse at 30 mg/kg, po measured after 30 mins post dose. In kind it is ADME, organism-based. Particulars: in vivo, 0.5 h; call rule not given here.
The nature of data set [6]: Plasma concentration in mouse model of complete Freund's adjuvant-induced inflammatory pain at 60 mg/kg, po measured after 90 mins post dose. Format: ADME, organism-based.
The test system of data set [7] is Plasma. Nature of the data set: Unbound plasma concentration in mouse model of complete Freund's adjuvant-induced inflammatory pain at 30 mg/kg, po measured after 90 mins post dose. In kind it is ADME, organism-based. The following applies: in vivo, 1.5 h.
Data set [8] in a line: Half life in mouse at 30 mg/kg, po. In kind it is ADME, organism-based. Particulars: in vivo.
A short description of data set [9]: Plasma concentration in mouse at 100 mg/kg, po measured after 90 mins post dose. In kind it is ADME, organism-based.
Data set [10] is described as follows: Unbound drug concentration in dorsal root ganglion of mouse model of formalin-induced persistent pain at 30 mg/kg, po measured after 90 mins post dose. Format: ADME, organism-based. The following applies: in vivo, 1.5 h.
Data set [11] can be described thus: Drug concentration in brain of mouse model of complete Freund's adjuvant-induced inflammatory pain at 60 mg/kg, po measured after 90 mins post dose. Format: ADME, organism-based. Particulars: read-out: Drug uptake.
Data set [12] can be described thus: Drug concentration in mouse brain at 100 mg/kg, po measured after 30 mins post dose. Format: ADME, organism-based. The following applies: read-out: Drug uptake.
For data set [13], the system named is Plasma. Nature of the data set: Plasma concentration in mouse model of chronic constriction injury-induced cold hyperalgesia at 100 mg/kg, po dosed 30 mins before testing starting 5 weeks after surgery. In kind it is ADME, organism-based. Particulars: in vivo.
The test system of data set [14] is Plasma. The data set is described as follows: Unbound plasma concentration in mouse model of chronic constriction injury-induced cold hyperalgesia at 100 mg/kg, po dosed 30 mins before testing starting 5 weeks after surgery. Format: ADME, organism-based. The following applies: in vivo.
Data set [15] is described as follows: Unbound drug concentration in mouse dorsal root ganglion at 30 mg/kg, po measured after 30 mins post dose. In kind it is ADME, organism-based. Particulars: in vivo, 0.5 h.
A short description of data set [16]: Oral bioavailability life in mouse at 30 mg/kg. Format: ADME, organism-based. The following applies: in vivo.
Data set [17] can be described thus: Drug concentration in dorsal root ganglion of mouse model of formalin-induced persistent pain at 30 mg/kg, po measured after 90 mins post dose. In kind it is ADME, organism-based. Particulars: read-out: Drug uptake.
Data set [18] can be described thus: Plasma concentration in mouse model of complete Freund's adjuvant-induced inflammatory pain at 30 mg/kg, po measured after 90 mins post dose. In kind it is ADME, organism-based.
Data set [19] in a line: Volume of distribution at steady state in mouse at 2 mg/kg, iv. Particulars: in vivo, read-out: Vdss. In kind it is ADME, organism-based.
The nature of data set [20]: Drug concentration in brain of mouse model of complete Freund's adjuvant-induced inflammatory pain at 10 mg/kg, po measured after 90 mins post dose. In kind it is ADME, organism-based. The following applies: read-out: Drug uptake.
Data set [21] has as its system Plasma. Nature of the data set: Unbound plasma concentration in mouse model of nociceptive flexion reflex 30 mg/kg, ip measured after 60 mins post dose. Format: ADME, organism-based. Particulars: in vivo, 1 h.
A short description of data set [22]: Ratio of drug level in brain to plasma of mouse at 100 mg/kg, po measured after 30 mins post dose. Format: ADME, organism-based. Particulars: read-out: BPR.
The subject of data set [23] is Plasma. The data set is described as follows: Unbound plasma concentration in mouse model of nociceptive flexion reflex 10 mg/kg, ip measured after 60 mins post dose. In kind it is ADME, organism-based. The following applies: in vivo, 1 h.
Data set [24] concerns Plasma. Nature of the data set: Unbound plasma concentration in mouse model of complete Freund's adjuvant-induced inflammatory pain at 10 mg/kg, po measured after 90 mins post dose. In kind it is ADME, organism-based. Particulars: in vivo, 1.5 h.
Data set [25] is described as follows: Plasma concentration in mouse model of formalin-induced persistent pain at 30 mg/kg, po measured after 90 mins post dose. Format: ADME, organism-based.
For data set [26], the system named is Plasma. The data set is described as follows: Unbound plasma concentration in mouse model of complete Freund's adjuvant-induced inflammatory pain at 60 mg/kg, po measured after 90 mins post dose. In kind it is ADME, organism-based. Particulars: in vivo, 1.5 h.
Data set [27] is described as follows: Drug concentration in mouse brain at 100 mg/kg, po measured after 90 mins post dose. In kind it is ADME, organism-based. The following applies: read-out: Drug uptake.
Data set [28] is described as follows: Plasma concentration in mouse at 100 mg/kg, po measured after 30 mins post dose. In kind it is ADME, organism-based.
Data set [29] can be described thus: Plasma concentration in mouse at 30 mg/kg, po measured after 30 mins post dose. Format: ADME, organism-based.
A short description of data set [30]: Plasma concentration in mouse model of nociceptive flexion reflex 10 mg/kg, ip measured after 60 mins post dose. In kind it is ADME, organism-based.
Data set [31] can be described thus: Cmax in mouse at 30 mg/kg, po. Format: ADME, organism-based. The arrangement: dose 30 mg/kg, route oral. The following applies: in vivo.
Data set [32] can be described thus: Plasma concentration in mouse model of nociceptive flexion reflex 30 mg/kg, ip measured after 60 mins post dose. In kind it is ADME, organism-based.
Data set [33] is described as follows: Clearance in mouse at 2 mg/kg, iv. Particulars: in vivo. Format: ADME, organism-based.
Data set [34] is described as follows: Drug concentration in mouse trigeminal ganglion at 30 mg/kg, po measured after 30 mins post dose. Format: ADME, organism-based. Particulars: read-out: Drug uptake.
A short description of data set [35]: Ratio of drug level in brain to plasma of mouse at 100 mg/kg, po measured after 90 mins post dose. Format: ADME, organism-based. Particulars: read-out: BPR.
Data set [36] can be described thus: Drug concentration in brain of mouse model of complete Freund's adjuvant-induced inflammatory pain at 30 mg/kg, po measured after 90 mins post dose. Format: ADME, organism-based. Particulars: read-out: Drug uptake.
Data set [37] deals with Plasma. Nature of the data set: Unbound plasma concentration in mouse model of formalin-induced persistent pain at 30 mg/kg, po measured after 90 mins post dose. In kind it is ADME, organism-based. Particulars: in vivo, 1.5 h.
Data set [38] in a line: Drug concentration in mouse dorsal root ganglion at 30 mg/kg, po measured after 30 mins post dose. Particulars: read-out: Drug uptake. In kind it is ADME, organism-based.
The nature of data set [39]: Drug concentration in trigeminal ganglion of mouse model of formalin-induced persistent pain at 30 mg/kg, po measured after 90 mins post dose. The following applies: read-out: Drug uptake. In kind it is ADME, organism-based.

The structures appear in SMILES notation. Where only a bound is given, the exact number is not on record here.

Turning to `O=S(=O)(Nc1nccs1)c1cc(Cl)c(NC[C@H]2CCCO[C@@H]2c2ccccc2)cc1F` (racemic), the apparent permeability (Papp) was 73.5 ×10⁻⁶ cm/s in data set [1] and 42.8 ×10⁻⁶ cm/s in [2].

Consider `CC(C)(C)[C@H]1OCCC[C@@H]1CNc1cc(F)c(S(=O)(=O)Nc2nccs2)cc1Cl` (racemic), for which the Papp result in data set [3] is “Not Active”; in [1], 67.7 ×10⁻⁶ cm/s.

With `O=S(=O)(Nc1nccs1)c1cc(Cl)c(NC[C@H]2CCC[C@H](O)C2)cc1F` (racemic), the Papp is 16.2 ×10⁻⁶ cm/s in data set [1] and 21.6 ×10⁻⁶ cm/s in [2].

Turning to `O=S(=O)(Nc1nccs1)c1cc(Cl)c(NC[C@H]2CC[C@H](O)CC2)cc1F`, the Papp amounted to 20.7 ×10⁻⁶ cm/s in data set [1] and 54.6 ×10⁻⁶ cm/s in data set [2].

In data set [1], `CC(C)(C)[C@@H]1OCCC[C@@H]1CNc1cc(F)c(S(=O)(=O)Nc2nccs2)cc1Cl` (racemic) had a Papp of 43.9 ×10⁻⁶ cm/s.

Take `O=S(=O)(Nc1nccs1)c1cc(Cl)c(NCC2CCCC3(C2)OCCO3)cc1F` (stereo not given): the Papp in [1] turned out to be 41.9 ×10⁻⁶ cm/s; in data set [2] it was 45.1 ×10⁻⁶ cm/s.

In the case of `O=S(=O)(Nc1nccs1)c1cc(Cl)c(NC[C@H]2CCC[C@@H](O)C2)cc1F` (racemic), the Papp in data set [1] stood at 16.2 ×10⁻⁶ cm/s; in [2], 21.6 ×10⁻⁶ cm/s.

For the compound `O=S(=O)(Nc1nccs1)c1cc(Cl)c(NCC2CCCCO2)cc1F` (stereo not given), the Papp in [1] and in data set [2] was 61 ×10⁻⁶ cm/s throughout.

Take `O=S(=O)(Nc1nccs1)c1cc(Cl)c(NC[C@H]2CCCOC2)cc1F`: the concentration at 1.5 h is 750 nM in data set [4]; 2560 nM in data set [6]; 3670 nM in [9]; below 25 nM in [11]; 660 nM in data set [17]; 1130 nM in data set [18]. In addition, the concentration at 1.5 h is below 25 nM in data set [20]; 7300 nM in [25]; 42 nM in data set [27]; below 25 nM in data set [36]; 5000 nM in [39]. Moreover, the “Cp(f)” value in data set [5] came out at 300 nM; in data set [7], 26 nM; in [14], 740 nM; in [21] it was 1900 nM; in [23], 660 nM; in data set [24], 17 nM. Moreover, the “Cp(f)” value in data set [26] is 59 nM; in [37], 170 nM. Moreover, in data set [8], the half-life was 3 h. Also, the “Drug uptake(free)” value in data set [10] amounted to 0.07 µM; in data set [15] it was 0.11 µM. Besides, the Papp worked out at 37.7 ×10⁻⁶ cm/s in [1] and 47.7 ×10⁻⁶ cm/s in data set [2]. In addition, the concentration at 0.5 h in data set [12] was 120 nM; in [28], 7340 nM; in data set [29] it was 13000 nM; in [34], 5800 nM; in data set [38], 1100 nM. This compound returned a concentration in data set [13] of 32000 nM. In [16], this compound returned a bioavailability of 47%. For the same compound, the Vd in data set [19] was 0.6 L/kg. Also, the Kp at 0.5 h in data set [22] came out at 0.017. In addition, the values for the concentration at 1 h in [30] and in data set [32] were 29000 nM and 82000 nM, respectively. In data set [31], this compound had a Cmax of 37000 nM. Besides, the clearance in [33] amounted to 13 mL/min/kg. The Kp at 1.5 h in data set [35] turned out to be 0.012.

As to `O=S(=O)(Nc1nccs1)c1cc(Cl)c(NC[C@H]2CC[C@@H](O)CC2)cc1F`, the Papp in [1] was found to be 10.1 ×10⁻⁶ cm/s; in data set [2] it was 46.4 ×10⁻⁶ cm/s.
